For series [1], the system named is animal models of inflammatory and neuropathic pain. Conditions: administered locally; formalin test and spinal nerve ligation; cited from earlier work.
Series [2] has as its system patients. The settings on record: Langman et al, Lancet 1994; cited from earlier work.
Series [3] deals with subjects undergoing transpositional osteotomy (bunionectomy). As to the kind of experiment: Bunionectomy efficacy study (Phase II): VAS pain at the operation site and rescue analgesia. In kind it is in vivo, human. Conditions: for VAS pain score, mean +/− SEM: 1000 μg into the wound, n = 11. The protocol: The primary efficacy endpoint was the proportion of subjects in each treatment group requiring opioid analgesia in the first 24 hours post-operatively. The proportions were compared amongst treatment groups using the Cochran-Haenszel test. Secondary efficacy end points included: i) proportion of subjects in each treatment group requiring opioid analgesia in the first 36 hour period post-operatively (Similarly, the proportions were compared amongst treatment groups using the Cochran-Haenszel test); ii) proportion of subjects in each treatment group requiring opioid analgesia in the 10 day period post-operatively (Similarly, the proportions were compared amongst treatment groups using the Cochran-Haenszel test); iii) time to first usage of opioid analgesia in each treatment group (a survival analysis approach will be used: the product-limit (Kaplan-Meier) method will be applied to time to first usage of opioid analgesia. The median time to first usage of opioid analgesia will be estimated in both treatment groups. Pairwise comparisons will be performed to test for equality of the survival curves between the 2 treatment groups using both the log-rank and the Wilcoxon test); iv) total usage of analgesia in each treatment group (the total usage of analgesia will be compared by an analysis of variance with treatment and center as independent variables. A pairwise comparison will be performed between the treatment groups); and v) VAS assessment of pain at the site of operation in each treatment group (The VAS score at each time point will be compared by an analysis of variance with treatment and center as independent variables. A pairwise comparison will be performed between the treatment groups). […] The efficacy analysis was performed on the data obtained ten days postoperatively. The safety analysis was performed based on the safety data for the entire study, including the 6 week and 12 week follow-up periods. The blind was broken at the time the efficacy analysis was performed. However, the individual treatment assignment was available to the statistical analysis group only. All other personnel involved in the study, including the Investigator, study monitor and proprietary staff, remained blinded until the entire study was completed.
The study was designed to include 40 evaluation subjects. […] Each subject had six (6) study visits: a Screening Day (Day −28 to −1), an Operation Day (Day 0), and four (4) Follow-up visits (scheduled for Days 3, 10 and weeks 6 and 12).
On Operation Day (Day 0) the following was performed: a) Pre-operation: Prior to the initiation of an ankle block, inclusion/exclusion criteria assessment was performed. […] Immediately prior to wound closure, the Investigator slowly dripped the study medication (4 mL) from a syringe into the wound, ensuring even tissue exposure. The wound was then be closed according to normal practices and procedures.
In the 24 hours following administration of study medication, vital signs (supine pulse rate and blood pressure) were recorded at 1, 2, 4 and 24 hours post administration. VAS assessment of pain at the operation site was performed at 1, 4, 8, 12 and 24 hours post administration. In those instances where VAS measurements coincide with blood sampling procedures, the VAS assessment was performed first. […] The quantity of each blood sample was 10 mL. […] Adverse events were spontaneously reported by the subject and recorded. […]

For series [4] the following is noted: cited from earlier work.
The conditions of series [5]: human, in vivo, 300 ug. The protocol:
The pharmacokinetic parameters of Cmax, Tmax, AUC(0−tlast) and t½ were evaluated.

Series [6] relates to subjects with osteoarthritis of the knee. As to the kind of experiment: Osteoarthritis of the knee safety study (Phase 1): safety, tolerability and VAS pain after intra-articular infiltration. In kind it is in vivo, human. The settings on record: for patients reporting transient burning pain immediately following instillation: after 2% lignocaine. The protocol: The primary objective of the study was to evaluate the safety and tolerability of intra-articular capsaicin, when co-administered with intra-articular local anesthetic, compared to placebo, in subjects with end-stage osteoarthritis of the knee, already scheduled to receive knee replacements.
The study was designed to include 16 evaluation subjects. […] Sixteen subjects completed the study.
Patients were treated randomly and in double-blind fashion in four treatment groups, with each group having a progressively longer interval between the intra-articular administration of study medication and subsequent total knee replacement (2, 4, 7, and 14 days). […] Gross and microscopic pathology analysis was completed for each treatment group before the next treatment group was treated.
Each subject had 3 study visits: a Screening Day (Day −7 to −1), the Treatment Day (Day 0), and a Post-Treatment Day (scheduled for Day +2, +4, +7, or +14). On the Treatment Day the subject was randomized, pre-treatment evaluation was performed. The patients were brought into the procedure room, and a VAS pain score was taken (0 mm—no pain, 100 mm—extreme pain). Once the patient had marked his or her pain on the card, he/she was prepped for knee cannulation. Once the cannula was placed, the patient received by intra-articular infiltration, 3 mg/kg (maximum dose of 200 mg) of 2% lignocaine into the knee scheduled to be replaced.
VAS pain scores as well as verbal reports were taken immediately following administration, as well as prior to knee replacement surgery. No subjects discontinued from the study due to adverse events.
On the Post-Treatment Day, study evaluation was performed followed by the scheduled knee replacement, with intra-operative bone and soft tissue biopsies performed for subsequent examination. […] This therefore left the 3 placebo and 9 active patients from the 4 day, 7 day, and 14 day cohorts.

For series [7], the system named is rats. The settings on record: systemic, cited from earlier work.

“And” between values parts separate entries of the source, which are not always exact repeats. Equal values may be shown once.

As to `CN(C)CCC=C1c2ccccc2CCc2ccccc21` [amitriptyline], the local antinociceptive action entry in series [1] is recorded as “produced local antinociceptive actions”.

On to `CNCCCN1c2ccccc2CCc2ccccc21` [desipramine], for which the local antinociceptive action result in series [1] was “produced local antinociceptive actions”.

`CN1C(C(=O)Nc2ccccn2)=C(O)c2ccccc2S1(=O)=O` [piroxicam]: in series [2], the “patients experiencing gross bleeding and ulceration” value is “up to 4%”.

With `COc1cc(CNC(=O)CCCC/C=C/C(C)C)ccc1O` [purified capsaicin, N-(4-hydroxy-3-methoxybenzyl)-8-methylnon-trans-6-enamide], the “study subjects requiring rescue (opioid rescue)” value in series [3] (1000 μg prior to wound closure, within 72 hours, n=11) was determined as 45%. For the same compound, the “VAS pain score, mean +/− SEM” value in series [3] (8 hr) is reported as 5.5 +/− 2.3; in series [3] (12 hr) it was 8.2 +/− 3.8; in series [3] (24 hr), 1.9 +/− 1.0; in series [3] (48 hr), 5.9 +/− 2.5. Moreover, the “solubility in organic solvents” value in series [4] (alcohol, ether, benzene and chloroform) is “freely soluble”. Besides, the solubility in water result in series [4] (water) is “practically insoluble”. The “AUC(0−tlast)” value in series [5] amounted to 0.49883 ng·h/mL. For the same compound, the “patients reporting transient burning pain immediately following instillation” value is given as 0 of 4 in series [6] (10 μg capsaicin intra-articular), 1 of 4 in series [6] (100 μg capsaicin intra-articular) and 4 of 4 in series [6] (300 μg capsaicin intra-articular). Besides, the “duration of post-administration (hyper)algesic pain” value in series [6] (100 μg dose group, single subject) is 9 min; in series [6] (300 μg dose group, individual subjects), 17 minutes and 25 minutes (2×) and 42 minutes. Moreover, the tolerability result in series [6] (10, 100 and 300 μg intra-articular) is recorded as “well tolerated at all dose levels”. The “treatment related systemic side effects” value in series [6] (all dose levels) is listed as “No treatment related systemic side effects were seen”. The “gross and microscopic pathology” value in series [6] (all dose levels, knee tissue at replacement) is recorded as “normal”. Also, the “onset of post-administration (hyper)algesia after administration” value in series [6] (all episodes, 100 μg and 300 μg dose groups) is not above 5 min. Also, in series [6] (any dose group at any time point), the “effect on proprioception at the injected knee” value is “no discernable effect”. Further, the “average duration of post injection hyperalgesia” value in series [6] (burning sensation, 100 μg and 300 μg dose groups) is reported as “less than thirty minutes”. In series [6] (capsaicin group (9 active patients, 10-300 μg), 4 day, 7 day and 14 day cohorts), the “reduction of VAS pain score, before administration versus day of surgery” value came to 62±14%. Moreover, the “treatment related indication of efficacy (VAS)” value in series [6] (dose levels 10 μg, 100 μg and 300 μg) was “No clear treatment related indication of efficacy”. The “effect on radiation induced hyperalgesia” value in series [7] (final doses of 25 mg/kg or less prior to ultra violet radiation) is reported as “prevented radiation induced hyperalgesia”. The “effect on pain threshold” value in series [7] (final doses of 50 mg/kg or greater) is given as “pain threshold elevated”.

These data come from patent publication US20090062359A1 (AlgoRx, priority 2002, published 2009).
